Measurements: patent US12252481B2, “Anti-viral compounds” (Aligos Therapeutics, Inc., priority 2021, dated 2025)
pEC50, pIC50: −log10 of the molar value. Read-outs that look alike come from different tables or passages of the source.

How the values were obtained:
[1] = test system: A549-dual_ACE2_TMPRSS2 cells; settings: read-out: A549-dual_ACE2_TMPRSS2 (CC50); assay medium without virus, MTS, numeric values
HeLa cells = experiment: Cytotoxicity in HeLa cells without OC43 virus (cell-titer-glo); settings: HeLa cells without OC43 virus
SARS-Cov-2 3CLpro = biological target: T1, SARS-Cov-2 3CLpro (Severe acute respiratory syndrome coronavirus 2, UniProt P0DTD1); experiment: biochemical; settings: read-out: SARS-Cov-2 IC50 (class)
T1 construct: 3CLpro and HRV3C was added using a Multidrop Combi

HRV3C = biological target: T2, HRV3C (Human rhinovirus 14, UniProt P03303); experiment: biochemical; set-up: species or system HRV; settings: HRV3C, 30 mins preincubation, SAMDI-MS
T2 construct: 3CLpro and HRV3C was added using a Multidrop Combi
T2 sequence (P03303 1538-1719): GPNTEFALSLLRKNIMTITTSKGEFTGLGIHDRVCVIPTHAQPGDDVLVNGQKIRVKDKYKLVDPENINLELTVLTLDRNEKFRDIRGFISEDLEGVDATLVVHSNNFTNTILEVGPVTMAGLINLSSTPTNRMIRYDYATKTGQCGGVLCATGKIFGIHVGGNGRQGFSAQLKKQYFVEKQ

[2] = test system: B.1.1.7 lineage SARS-CoV-2; experiment: microbe, parasite or virus in culture; type: cell-based; settings: read-out: A549-dual_ACE2_TMPRSS2 (EC50)
[3] = test system: human beta-coronavirus OC43; experiment: OC43 coronavirus antiviral assay in HeLa cells (cytopathic effect, cell-titer-glo); type: cell-based; settings: 6 days at 33° C.
human cathepsin L = biological target: T3, human cathepsin L (Homo sapiens, UniProt P07711); experiment: Cathepsin L assay (Z-FR-AMC fluorescence); type: biochemical; settings: 10 pM human cathepsin L, 30 mins preincubation, Z-FR-AMC 2 μM
T3 construct: purchased R&D Systems
T3 sequence (P07711 114-333): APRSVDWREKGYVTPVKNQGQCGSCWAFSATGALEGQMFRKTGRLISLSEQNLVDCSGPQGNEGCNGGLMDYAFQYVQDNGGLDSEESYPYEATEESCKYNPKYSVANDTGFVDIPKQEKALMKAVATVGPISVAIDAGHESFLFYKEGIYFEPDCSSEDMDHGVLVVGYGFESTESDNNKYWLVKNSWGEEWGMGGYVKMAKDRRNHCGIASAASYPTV
Summary of the method: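 Human cathepsin L (10 pM) was preincubated 30 min with compound, then reactions were started with Z-FR-AMC substrate (2 μM final). AMC fluorescence (355/460 nm) was read every 2 min over 30 min. IC50 came from a four-parameter curve fit.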

[4] = test system: SARS-CoV-2-GHB-03021/2020; type: cell-based; settings: read-out: VeroE6 + CP (EC50)
[5] = 3CLpro, 30 mins preincubation, SAMDI-MS
[6] = Severe acute respiratory syndrome coronavirus 2, 96 h
[7] = Betacoronavirus 1, OC43, HeLa, 144 h, read-out: EC50 (class)

SMILES | CC50 [1] [nM] | CC50 (HeLa cells) [nM] | pIC50 (SARS-Cov-2 3CLpro) | pIC50 (HRV3C; read-out: HRV IC50 (bound)) | pEC50 [2] | pEC50 ([3]; read-out: EC50 (class)) | pIC50 (human cathepsin L) | pIC50 (SARS-Cov-2 3CLpro; [5]) | pEC50 [4] | pEC50 [2, 6] | pEC50 [3, 7] | pEC50 ([2]; Severe acute respiratory syndrome coronavirus 2, 96 h, […], numeric bounds given instead of class symbols) | pEC50 ([3]; Betacoronavirus 1, OC43, HeLa, 144 h, read-out: EC50 (bound)) | pIC50 (HRV3C; read-out: HRV IC50 (class))
CC(C)(C1CC1)[C@H](NC(=O)C(F)(F)F)C(=O)N1C[C@H]2[C@@H]([C@H]1C(=O)N[C@H](C#N)C[C@@H]1CCNC1=O)[C@H]1C=C[C@@H]2C1 [Compound 69, (1R,2S,3S,6R,7S)—N-[(1S)-1-cyano-2-[(3S)-2-oxopyrrolidin-3-yl]ethyl]-4-[(2S)-3-cyclopropyl-3-methyl-2-(2,2,2-trifluoroacetamido)butanoyl]-4-azatricyclo[5.2.1.0^{2,6}]dec-8-ene-3-carboxamide] | > 10000 | > 100000 | > 7.70 | < 5.00 | > 7.00 | > 7.00 | ≤ 5.00 | – | – | – | – | – | – | –
CC(C)(C)[C@H](NC(=O)C(F)(F)F)C(=O)N1C[C@@H]2[C@H]3CC[C@H](CC3)[C@@H]2[C@H]1C(=O)N[C@H](C#N)C[C@@H]1CCNC1=O [Compound 71b] | > 10000 | > 100000 | – | < 5.00 | > 7.00 | > 7.00 | – | > 7.70 | – | – | – | – | – | –
CC(C)(C)[C@H](NC(=O)C(F)(F)F)C(=O)N1C[C@@]2(F)[C@@H]([C@H]1C(=O)N[C@H](C#N)C[C@@H]1CCNC1=O)[C@H]1C=C[C@@H]2C1 [Example 94, (1R,2R,3S,6S,7S)—N-[(1S)-1-cyano-2-[(3S)-2-oxopyrrolidin-3-yl]ethyl]-4-[(2S)-3,3-dimethyl-2-(2,2,2-trifluoroacetamido)butanoyl]-6-fluoro-4-azatricyclo[5.2.1.0^{2,6}]dec-8-ene-3-carboxamide] | > 1000 | > 100000 | > 7.70 | < 6.30 | > 7.00 | > 7.00 | – | – | – | – | – | – | – | –
CC(C)(C)[C@H](NC(=O)C(F)(F)F)C(=O)N1C[C@H]2[C@@H]([C@H]1C(=O)N[C@H](C#N)CC1CC3(COC3)NC1=O)[C@H]1C=C[C@@H]2C1 (stereo partly drawn) [Compound 106, (1R,2S,3S,6R,7S)—N-[(1S)-1-cyano-2-{6-oxo-2-oxa-5-azaspiro[3.4]octan-7-yl}ethyl]-4-[(2S)-3,3-dimethyl-2-(2,2,2-trifluoroacetamido)butanoyl]-4-azatricyclo[5.2.1.0^{2,6}]dec-8-ene-3-carboxamide] | > 10000 | > 100000 | > 7.70 | < 6.30 | > 7.00 | > 7.00 | – | – | – | – | – | – | – | –
CC(C)(C)[C@H](NC(=O)C(F)(F)F)C(=O)N1C[C@@H]2[C@H]3C[C@@H]([C@@H]2[C@H]1C(=O)N[C@H](C#N)C[C@@H]1CCNC1=O)C(F)(F)C3 [Compound 61, (1S,2R,3S,6R,7S)—N-[(1S)-1-cyano-2-[(3S)-2-oxopyrrolidin-3-yl]ethyl]-4-[(2S)-3,3-dimethyl-2-(2,2,2-trifluoroacetamido)butanoyl]-9,9-difluoro-4-azatricyclo[5.2.1.0^{2,6}]decane-3-carboxamide] | > 10000 | > 100000 | > 7.70 | < 5.00 | – | 6.00 to 7.00 | ≤ 5.00 | – | – | – | – | – | – | –
CC(C)(C)[C@H](NC(=O)C(F)(F)F)C(=O)N1C[C@H]2[C@@H]([C@H]1C(=O)N[C@H](C#N)C[C@@H]1CCNC1=O)[C@H]1C=C[C@@H]2CC1 [Compound 59b] | > 10000 | > 100000 | – | < 5.00 | – | > 7.00 | ≤ 5.00 | > 7.70 | – | – | – | – | – | –
CC(C)(C)[C@H](NC(=O)C(F)(F)F)C(=O)N1C[C@H]2[C@@H]([C@H]1C(=O)N[C@H](C#N)CC1Cn3nccc3NC1=O)[C@H]1C=C[C@@H]2C1 (stereo partly drawn) [Example 9, (1S,3aR,4S,7R,7aS)—N-((1S)-1-cyano-2-(5-oxo-4,5,6,7-tetrahydropyrazolo[1,5-a]pyrimidin-6-yl)ethyl)-2-((S)-3,3-dimethyl-2-(2,2,2-trifluoroacetamido)butanoyl)-2,3,3a,4,7,7a-hexahydro-1H-4,7-methanoisoindole-1-carboxamide] | – | – | – | < 5.00 | – | – | ≤ 5.00 | > 7.70 | > 7.00 | 6.00 to 7.00 | > 7.00 | – | – | –
CC(C)(C)[C@@H](C(=O)N1C[C@H]2[C@@H]([C@H]1C(=O)N[C@H](C#N)C[C@@H]1CCNC1=O)[C@H]1C=C[C@@H]2C1)N1CCCC1=O [Compound 70] | – | – | – | < 5.00 | – | – | ≤ 5.00 | 4.70 to 5.70 | 4.30 to 5.00 | – | – | < 5.00 | < 5.00 | –
CC(C)(C)[C@H](NC(=O)C(F)(F)F)C(=O)N1C[C@H]2[C@@H]([C@H]1C(=O)N[C@H](C#N)C[C@@H]1CCNC1=O)[C@H]1C=C[C@@H]2CC1 (mixture of isomers) [Compound 59] | – | – | – | < 5.00 | – | – | ≤ 5.00 | > 7.70 | > 7.00 | > 7.00 | > 7.00 | – | – | –
CC(C)(C)[C@H](NC(=O)C1COC1)C(=O)N1C[C@H]2[C@@H]([C@H]1C(=O)N[C@H](C#N)C[C@@H]1CCNC1=O)[C@H]1C=C[C@@H]2C1 [Example 36, (1R,2S,3S,6R,7S)—N-[(1S)-1-cyano-2-[(3S)-2-oxopyrrolidin-3-yl]ethyl]-4-[(2S)-3,3-dimethyl-2-(oxetan-3-ylformamido)butanoyl]-4-azatricyclo[5.2.1.0^{2,6}]dec-8-ene-3-carboxamide] | – | – | – | < 5.00 | – | – | ≤ 5.00 | > 7.70 | 6.00 to 7.00 | 5.00 to 6.00 | 6.00 to 7.00 | – | – | –
CC(C)(C)[C@H](NC(=O)C(F)(F)F)C(=O)N1C[C@@H]2[C@H]3C[C@H]([C@@H]4C[C@@H]43)[C@@H]2[C@H]1C(=O)N[C@H](C#N)C[C@@H]1CCNC1=O [Example 2, (1R,2S,3S,6R,7S,8S,10R)—N-[(1S)-1-cyano-2-[(3S)-2-oxopyrrolidin-3-yl]ethyl]-4-[(2S)-3,3-dimethyl-2-(2,2,2-trifluoroacetamido)butanoyl]-4-azatetracyclo[5.3.1.0^{2,6}0.0^{8,10}]undecane-3-carboxamide] | – | – | – | < 5.00 | – | – | ≤ 5.00 | 6.70 to 7.70 | > 7.00 | > 7.00 | 6.00 to 7.00 | – | – | –
O=C(NC1CC1)C(=O)C(C[C@@H]1CCNC1=O)NC(=O)[C@@H]1[C@@H]2[C@H](CN1C(=O)c1nc3c(Cl)ccc(Cl)c3[nH]1)[C@@H]1C=C[C@H]2C1 (stereo partly drawn) [Compound 45, (1S,3aR,4S,7R,7aS)—N-(4-(cyclopropylamino)-3,4-dioxo-1-((S)-2-oxopyrrolidin-3-yl)butan-2-yl)-2-(4,7-dichloro-1H-benzo[d]imidazole-2-carbonyl)-2,3,3a,4,7,7a-hexahydro-1H-4,7-methanoisoindole-1-carboxamide] | – | – | – | – | – | – | ≤ 5.00 | 6.70 to 7.70 | 5.00 to 6.00 | 5.00 to 6.00 | 5.00 to 6.00 | – | – | 4.70 to 5.70
[2H]C1([2H])C[C@@H](C[C@@H](C#N)NC(=O)[C@@H]2[C@@H]3[C@H](CN2C(=O)[C@@H](NC(=O)C(F)(F)F)C(C)(C)C)[C@@H]2C=C[C@H]3C2)C(=O)N1 [Compound 50, (1S,3aR,4S,7R,7aS)-N-((S)-1-cyano-2-((S)-2-oxopyrrolidin-3-yl-5,5-d2)ethyl)-2-((S)-3,3-dimethyl-2-(2,2,2-trifluoroacetamido)butanoyl)-2,3,3a,4,7,7a-hexahydro-1H-4,7-methanoisoindole-1-carboxamide] | – | – | – | < 5.00 | – | – | ≤ 5.00 | > 7.70 | > 7.00 | > 7.00 | > 7.00 | – | – | –
CC(C)(C)[C@H](NC(=O)[C@H]1CC1(F)F)C(=O)N1C[C@H]2[C@@H]([C@H]1C(=O)N[C@H](C#N)C[C@@H]1CCNC1=O)[C@H]1C=C[C@@H]2C1 [Example 33, (1S,3aR,4S,7R,7aS)-N-((S)-1-cyano-2-((S)-2-oxopyrrolidin-3-yl)ethyl)-2-((S)-2-((R)-2,2-difluorocyclopropane-1-carboxamido)-3,3-dimethylbutanoyl)-2,3,3a,4,7,7a-hexahydro-1H-4,7-methanoisoindole-1-carboxamide] | – | – | – | < 5.00 | – | – | ≤ 5.00 | > 7.70 | > 7.00 | 6.00 to 7.00 | > 7.00 | – | – | –
CC(C)(C)[C@H](NC(=O)C(F)(F)F)C(=O)N1C[C@@H]2[C@@H]3CC[C@@H](C3)[C@@H]2[C@H]1C(=O)N[C@H](C#N)C[C@@H]1CCNC1=O [Example 12, (1S,3aR,4R,7S,7aS)-N-((S)-1-cyano-2-((S)-2-oxopyrrolidin-3-yl)ethyl)-2-((S)-3,3-dimethyl-2-(2,2,2-trifluoroacetamido)butanoyl)octahydro-1H-4,7-methanoisoindole-1-carboxamide] | – | – | – | < 5.00 | – | – | ≤ 5.00 | > 7.70 | > 7.00 | > 7.00 | > 7.00 | – | – | –
